Assay results published in ChEMBL document CHEMBL1909046, “DrugMatrix in vitro pharmacology data”.

Columns and labels:
[1] = molecular target: C-C chemokine receptor type 2 (Homo sapiens, UniProt P41597); format: cell membranes, CHO-K1, Membrane; settings: cho-k1; note: in other assays of this panel Not Active means under 50% inhibition at 10 µM
[2] = molecular target: Vascular endothelial growth factor receptor 1 (Homo sapiens, UniProt P17948); format: cell-based; settings: huvec; note: in other assays of this panel Not Active means under 50% inhibition at 10 µM
Vascular endothelial growth factor receptor 1, sequence (P17948 whole entry): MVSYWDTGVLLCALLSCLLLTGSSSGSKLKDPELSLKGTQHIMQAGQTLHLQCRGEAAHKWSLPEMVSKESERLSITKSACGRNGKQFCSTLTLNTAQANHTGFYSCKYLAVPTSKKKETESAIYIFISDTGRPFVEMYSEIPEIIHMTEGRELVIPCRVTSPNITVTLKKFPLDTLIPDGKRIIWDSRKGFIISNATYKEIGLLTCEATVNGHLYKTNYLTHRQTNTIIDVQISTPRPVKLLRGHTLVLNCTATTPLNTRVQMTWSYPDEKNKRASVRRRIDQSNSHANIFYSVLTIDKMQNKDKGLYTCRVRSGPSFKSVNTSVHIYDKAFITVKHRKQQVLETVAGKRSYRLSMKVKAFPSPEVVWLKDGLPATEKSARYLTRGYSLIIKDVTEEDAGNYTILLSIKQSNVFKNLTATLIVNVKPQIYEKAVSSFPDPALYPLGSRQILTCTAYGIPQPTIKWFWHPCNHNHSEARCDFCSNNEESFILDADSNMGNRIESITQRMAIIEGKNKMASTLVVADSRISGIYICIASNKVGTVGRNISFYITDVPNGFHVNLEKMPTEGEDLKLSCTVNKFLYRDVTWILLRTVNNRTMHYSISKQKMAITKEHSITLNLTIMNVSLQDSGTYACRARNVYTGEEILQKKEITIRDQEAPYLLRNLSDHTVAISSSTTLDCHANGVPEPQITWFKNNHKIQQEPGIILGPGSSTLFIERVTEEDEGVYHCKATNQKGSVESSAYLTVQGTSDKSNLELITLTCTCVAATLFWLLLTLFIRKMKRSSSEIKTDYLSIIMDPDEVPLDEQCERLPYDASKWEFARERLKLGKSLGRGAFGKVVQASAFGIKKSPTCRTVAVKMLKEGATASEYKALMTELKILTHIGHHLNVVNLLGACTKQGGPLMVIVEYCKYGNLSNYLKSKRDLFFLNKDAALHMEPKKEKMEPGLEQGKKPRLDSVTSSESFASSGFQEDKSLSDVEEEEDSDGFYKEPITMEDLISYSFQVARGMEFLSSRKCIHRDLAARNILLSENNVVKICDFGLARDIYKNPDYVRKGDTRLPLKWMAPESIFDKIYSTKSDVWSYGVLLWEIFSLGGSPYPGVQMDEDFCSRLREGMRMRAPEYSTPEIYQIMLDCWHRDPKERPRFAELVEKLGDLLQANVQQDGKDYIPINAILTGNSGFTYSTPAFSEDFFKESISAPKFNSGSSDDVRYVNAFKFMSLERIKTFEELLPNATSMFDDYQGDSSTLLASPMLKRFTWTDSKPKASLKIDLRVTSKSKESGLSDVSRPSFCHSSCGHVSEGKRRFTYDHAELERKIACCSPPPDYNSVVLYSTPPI

Cytochrome P450 2C9 = Cytochrome P450 2C9 (Homo sapiens, UniProt P11712); settings: bti-tn-5b1-4; note: in other assays of this panel Not Active means under 50% inhibition at 10 µM
Cytochrome P450 2C9, sequence (P11712 whole entry): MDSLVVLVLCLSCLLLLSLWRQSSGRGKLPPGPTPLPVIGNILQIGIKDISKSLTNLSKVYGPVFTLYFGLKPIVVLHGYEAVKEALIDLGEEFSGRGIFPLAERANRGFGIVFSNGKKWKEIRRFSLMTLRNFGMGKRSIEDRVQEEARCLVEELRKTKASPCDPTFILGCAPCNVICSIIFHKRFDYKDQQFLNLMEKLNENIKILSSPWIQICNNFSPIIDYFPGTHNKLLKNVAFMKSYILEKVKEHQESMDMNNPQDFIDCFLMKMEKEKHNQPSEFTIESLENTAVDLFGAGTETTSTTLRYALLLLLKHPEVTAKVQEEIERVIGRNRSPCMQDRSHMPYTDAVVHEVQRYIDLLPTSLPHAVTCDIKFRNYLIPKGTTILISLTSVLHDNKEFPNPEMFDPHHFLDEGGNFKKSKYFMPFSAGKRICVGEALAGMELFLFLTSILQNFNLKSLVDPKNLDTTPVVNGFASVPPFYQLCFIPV

[3] = DRUGMATRIX: Leukotriene, BLT (LTB4) radioligand binding (ligand: [3H]LTB4); format: cell membranes, Membrane; settings: u-937; Not Active = under 50% inhibition at 10 µM
[4] = DRUGMATRIX: Glutamate, Kainate radioligand binding (ligand: [3H] Kainic acid); format: cell membranes, Rattus norvegicus, Wistar, Brain, Membrane; settings: Not Active = under 50% inhibition at 10 µM
[5] = DRUGMATRIX: Phosphodiesterase PDE3 enzyme inhibition (substrate: [3H]cAMP + cAMP); format: tissue-based, Homo sapiens; settings: platelet; Not Active = under 50% inhibition at 10 µM
[6] = molecular target: T1, C-X-C chemokine receptor type 2 (Homo sapiens, UniProt P25025); format: cell membranes, Membrane; settings: cho-k1; note: in other assays of this panel Not Active means under 50% inhibition at 10 µM
T1 sequence (P25025 whole entry): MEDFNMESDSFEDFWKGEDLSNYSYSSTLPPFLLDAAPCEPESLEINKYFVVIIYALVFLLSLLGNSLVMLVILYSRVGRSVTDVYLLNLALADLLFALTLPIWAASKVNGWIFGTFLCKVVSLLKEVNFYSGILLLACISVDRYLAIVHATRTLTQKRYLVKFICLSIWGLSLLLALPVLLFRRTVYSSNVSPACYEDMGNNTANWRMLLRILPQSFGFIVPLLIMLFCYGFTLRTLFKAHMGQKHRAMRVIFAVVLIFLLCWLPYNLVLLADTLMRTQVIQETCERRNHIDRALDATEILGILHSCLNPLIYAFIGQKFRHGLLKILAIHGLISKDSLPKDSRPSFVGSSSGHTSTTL

Estrogen receptor beta = Estrogen receptor beta (Homo sapiens, UniProt Q92731); settings: sf9; note: in other assays of this panel Not Active means under 50% inhibition at 10 µM
Estrogen receptor beta, sequence (Q92731 whole entry): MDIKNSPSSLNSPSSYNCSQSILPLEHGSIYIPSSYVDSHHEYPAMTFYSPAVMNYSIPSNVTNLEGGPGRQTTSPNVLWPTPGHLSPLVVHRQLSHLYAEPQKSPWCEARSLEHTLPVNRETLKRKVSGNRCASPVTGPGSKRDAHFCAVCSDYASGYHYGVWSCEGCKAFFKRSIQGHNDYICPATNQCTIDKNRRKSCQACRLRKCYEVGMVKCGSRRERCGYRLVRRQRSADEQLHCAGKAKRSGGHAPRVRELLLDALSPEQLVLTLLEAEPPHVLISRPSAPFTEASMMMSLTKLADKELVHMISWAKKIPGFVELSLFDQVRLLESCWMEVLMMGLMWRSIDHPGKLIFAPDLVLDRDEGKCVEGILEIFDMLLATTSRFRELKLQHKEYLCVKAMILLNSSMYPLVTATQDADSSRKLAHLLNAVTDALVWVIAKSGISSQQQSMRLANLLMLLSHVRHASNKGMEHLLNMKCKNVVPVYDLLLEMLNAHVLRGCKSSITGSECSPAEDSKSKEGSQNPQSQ

[7] = molecular target: T2, Nitric oxide synthase, inducible (Mus musculus, UniProt P29477); parameters: species or system Escherichia coli
T2 sequence (P29477 whole entry): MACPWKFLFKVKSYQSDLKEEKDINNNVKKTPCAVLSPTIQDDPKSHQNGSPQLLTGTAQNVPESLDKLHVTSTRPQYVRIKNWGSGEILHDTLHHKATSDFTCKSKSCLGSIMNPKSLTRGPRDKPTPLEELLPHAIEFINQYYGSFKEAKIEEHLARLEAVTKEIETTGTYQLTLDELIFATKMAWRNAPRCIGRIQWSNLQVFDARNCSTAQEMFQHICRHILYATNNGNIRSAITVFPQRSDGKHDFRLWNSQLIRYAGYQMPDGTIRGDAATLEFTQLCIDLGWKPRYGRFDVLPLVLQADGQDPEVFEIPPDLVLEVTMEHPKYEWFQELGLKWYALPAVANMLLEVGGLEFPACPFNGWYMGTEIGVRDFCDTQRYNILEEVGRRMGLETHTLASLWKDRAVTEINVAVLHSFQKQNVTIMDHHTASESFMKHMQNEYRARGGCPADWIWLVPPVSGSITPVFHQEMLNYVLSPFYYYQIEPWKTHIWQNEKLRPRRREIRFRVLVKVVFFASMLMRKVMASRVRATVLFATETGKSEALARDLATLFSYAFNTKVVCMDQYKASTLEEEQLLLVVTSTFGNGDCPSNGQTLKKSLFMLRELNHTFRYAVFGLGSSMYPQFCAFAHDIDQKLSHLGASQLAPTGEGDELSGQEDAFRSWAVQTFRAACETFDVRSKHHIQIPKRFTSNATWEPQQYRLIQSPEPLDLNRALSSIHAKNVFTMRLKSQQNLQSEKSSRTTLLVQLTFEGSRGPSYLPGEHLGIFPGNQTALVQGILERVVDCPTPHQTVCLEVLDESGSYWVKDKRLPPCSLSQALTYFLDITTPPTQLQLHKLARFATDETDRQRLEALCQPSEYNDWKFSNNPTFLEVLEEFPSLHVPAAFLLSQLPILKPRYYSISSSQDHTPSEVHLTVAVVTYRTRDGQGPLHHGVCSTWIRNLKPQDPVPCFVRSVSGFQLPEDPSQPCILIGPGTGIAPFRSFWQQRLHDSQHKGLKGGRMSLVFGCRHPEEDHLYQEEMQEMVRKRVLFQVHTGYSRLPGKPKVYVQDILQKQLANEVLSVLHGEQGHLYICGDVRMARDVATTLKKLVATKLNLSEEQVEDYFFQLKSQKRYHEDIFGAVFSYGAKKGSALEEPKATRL

C-C chemokine receptor type 2, sequence (P41597 whole entry): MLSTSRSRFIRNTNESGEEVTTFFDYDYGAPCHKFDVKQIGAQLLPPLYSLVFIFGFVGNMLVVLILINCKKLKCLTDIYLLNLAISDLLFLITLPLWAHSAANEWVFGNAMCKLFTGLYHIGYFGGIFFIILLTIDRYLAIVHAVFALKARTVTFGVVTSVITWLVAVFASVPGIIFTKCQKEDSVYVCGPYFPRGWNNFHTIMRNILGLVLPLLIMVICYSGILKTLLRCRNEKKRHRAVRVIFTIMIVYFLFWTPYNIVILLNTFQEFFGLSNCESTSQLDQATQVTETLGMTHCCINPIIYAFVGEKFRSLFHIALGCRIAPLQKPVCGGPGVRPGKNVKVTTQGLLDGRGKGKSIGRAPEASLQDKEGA

CC(C)CN(C[C@@H](O)[C@H](Cc1ccccc1)NC(=O)O[C@H]1CCOC1)S(=O)(=O)c1ccc(N)cc1
Not Active: IC50 [1] | IC50 [2] | IC50 (Cytochrome P450 2C9) | Ki (Cytochrome P450 2C9) | IC50 [3] | Ki [3] | IC50 [4] | Ki [4] | IC50 [5] | Ki [5] | IC50 [6] | IC50 (Estrogen receptor beta) | IC50 [7]

c1ccc(Nc2ccc(Nc3ccccc3)cc2)cc1
Not Active: IC50 [1] | IC50 [2] | IC50 (Cytochrome P450 2C9) | Ki (Cytochrome P450 2C9) | IC50 [3] | Ki [3] | IC50 [4] | Ki [4] | IC50 [5] | Ki [5] | IC50 [6] | IC50 (Estrogen receptor beta) | IC50 [7]

COc1cc2c3cc1Oc1cc(ccc1O)C[C@@H]1c4c(cc(OC)c(O)c4Oc4ccc(cc4)C[C@@H]3N(C)CC2)CC[N+]1(C)C.[Cl-]
Not Active: IC50 [1] | IC50 [2] | IC50 (Cytochrome P450 2C9) | Ki (Cytochrome P450 2C9) | IC50 [3] | Ki [3] | IC50 [4] | Ki [4] | IC50 [5] | Ki [5] | IC50 [6] | IC50 (Estrogen receptor beta) | IC50 [7]

NC(=O)N1c2ccccc2CCc2ccccc21
Not Active: IC50 [1] | IC50 [2] | IC50 (Cytochrome P450 2C9) | Ki (Cytochrome P450 2C9) | IC50 [3] | Ki [3] | IC50 [4] | Ki [4] | IC50 [5] | Ki [5] | IC50 [6] | IC50 (Estrogen receptor beta) | IC50 [7]

O=C1CC[C@@H](N2C(=O)c3ccccc3C2=O)C(=O)N1
Not Active: IC50 [1] | IC50 [2] | IC50 (Cytochrome P450 2C9) | Ki (Cytochrome P450 2C9) | IC50 [3] | Ki [3] | IC50 [4] | Ki [4] | IC50 [5] | Ki [5] | IC50 [6] | IC50 (Estrogen receptor beta) | IC50 [7]

Cc1onc(O)c1CC(N)C(=O)O (racemic) [(R,S)-AMPA]
Not Active: IC50 [1] | IC50 [2] | IC50 (Cytochrome P450 2C9) | Ki (Cytochrome P450 2C9) | IC50 [3] | Ki [3] | IC50 [4] | Ki [4] | IC50 [5] | Ki [5] | IC50 [6] | IC50 (Estrogen receptor beta) | IC50 [7]

Cc1ccc2cc3c(ccc4ccccc43)c3c2c1CC3 [3-METHYLCHOLANTHRENE]
Not Active: IC50 [1] | IC50 [2] | IC50 (Cytochrome P450 2C9) | Ki (Cytochrome P450 2C9) | IC50 [3] | Ki [3] | IC50 [4] | Ki [4] | IC50 [5] | Ki [5] | IC50 [6] | IC50 (Estrogen receptor beta) | IC50 [7]

CC[C@@]1(O)C[C@H](O[C@H]2C[C@H](N(C)C)[C@H](O[C@H]3C[C@H](O)[C@H](O[C@H]4CCC(=O)[C@H](C)O4)[C@H](C)O3)[C@H](C)O2)c2c(cc3c(c2O)C(=O)c2c(O)cccc2C3=O)[C@H]1C(=O)OC [ACLARUBICIN]
Not Active: IC50 [1] | IC50 [2] | IC50 (Cytochrome P450 2C9) | Ki (Cytochrome P450 2C9) | IC50 [3] | Ki [3] | IC50 [4] | Ki [4] | IC50 [5] | Ki [5] | IC50 [6] | IC50 (Estrogen receptor beta) | IC50 [7]

CN(C)c1nc(N(C)C)nc(N(C)C)n1 [ALTRETAMINE]
Not Active: IC50 [1] | IC50 [2] | IC50 [3] | Ki [3] | IC50 [4] | Ki [4] | IC50 [5] | Ki [5] | IC50 [6] | IC50 (Estrogen receptor beta) | IC50 [7]

Nc1c(Br)cc(Br)cc1CN[C@H]1CC[C@H](O)CC1 [AMBROXOL]
Not Active: IC50 [1] | IC50 [2] | IC50 [3] | Ki [3] | IC50 [4] | Ki [4] | IC50 [5] | Ki [5] | IC50 [6] | IC50 (Estrogen receptor beta) | IC50 [7]

CN(C)CCCN1c2ccccc2Sc2ccc(Cl)cc21 [CHLORPROMAZINE]
Not Active: IC50 [1] | IC50 [2] | IC50 [3] | Ki [3] | IC50 [4] | Ki [4] | IC50 [5] | Ki [5] | IC50 [6] | IC50 (Estrogen receptor beta) | IC50 [7]

Cc1cc(C(C#N)c2ccc(Cl)cc2)c(Cl)cc1NC(=O)c1cc(I)cc(I)c1O (stereo not drawn) [CLOSANTEL]
Not Active: IC50 [1] | IC50 [2] | IC50 [3] | Ki [3] | IC50 [4] | Ki [4] | IC50 [5] | Ki [5] | IC50 [6] | IC50 (Estrogen receptor beta) | IC50 [7]

Cc1onc(-c2ccccc2Cl)c1C(=O)N[C@@H]1C(=O)N2[C@@H]1SC(C)(C)[C@@H]2C(=O)O [CLOXACILLIN]
Not Active: IC50 [1] | IC50 [2] | IC50 [3] | Ki [3] | IC50 [4] | Ki [4] | IC50 [5] | Ki [5] | IC50 [6] | IC50 (Estrogen receptor beta) | IC50 [7]

O=c1oc2ccccc2c(O)c1Cc1c(O)c2ccccc2oc1=O [DICUMAROL]
Not Active: IC50 [1] | IC50 [2] | IC50 [3] | Ki [3] | IC50 [4] | Ki [4] | IC50 [5] | Ki [5] | IC50 [6] | IC50 (Estrogen receptor beta) | IC50 [7]

CC(C)[C@@]1(NC(=O)[C@@H]2C[C@@H]3c4cccc5[nH]cc(c45)C[C@H]3N(C)C2)O[C@@]2(O)[C@@H]3CCCN3C(=O)[C@H](Cc3ccccc3)N2C1=O.CS(=O)(=O)O [DIHYDROERGOCRISTINE MESYLATE]
Not Active: IC50 [1] | IC50 [2] | IC50 [3] | Ki [3] | IC50 [4] | Ki [4] | IC50 [5] | Ki [5] | IC50 [6] | IC50 (Estrogen receptor beta) | IC50 [7]

CCCCc1nc(Cl)c(CO)n1Cc1ccc(-c2ccccc2-c2nnn[nH]2)cc1 [LOSARTAN]
Not Active: IC50 [2] | IC50 [3] | Ki [3] | IC50 [4] | Ki [4] | IC50 [5] | Ki [5] | IC50 [6] | IC50 (Estrogen receptor beta) | IC50 [7]

CC1(C)S[C@@H]2[C@H](NC(=O)Cc3ccccc3)C(=O)N2[C@H]1C(=O)O [PENICILLIN G]
Not Active: IC50 [1] | IC50 [2] | IC50 [3] | Ki [3] | IC50 [4] | Ki [4] | IC50 [5] | Ki [5] | IC50 [6] | IC50 (Estrogen receptor beta) | IC50 [7]

CN(C)CCCN1c2ccccc2Sc2ccccc21 [PROMAZINE]
Not Active: IC50 [1] | IC50 [2] | IC50 [3] | Ki [3] | IC50 [4] | Ki [4] | IC50 [5] | Ki [5] | IC50 [6] | IC50 (Estrogen receptor beta) | IC50 [7]
